The source of these data is patent US20230104936A1, “TRPML MODULATORS” (Casma Therapeutics, Inc., priority 2019, published 2023).

What is called AC50 is the concentration at which the activity in the assay is half-maximal. Higher therefore signals activity only at high concentration.

For the first assay, the system named is TFEB. The experiment in a line: TFEB nuclear translocation assay, HeLa wt cells. Type of assay: cell-based. The conditions noted are these: 2 hrs compound treatment, Table 1 does not say HeLa wt or TRPML1 KO. A digest of the protocol:
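TFEB translocation into the nucleus of HeLa wt cells is scored by high-content immunofluorescence after 2 hrs of compound treatment at 37° C, reported as AC50.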
Consider `C[C@@H]1CN(CC2CCN(c3c(F)cccc3[C@@H](C)S(=O)(=O)c3ccc(S(=N)(=O)N(C)C)cc3)CC2)C[C@H](C)O1` (single isomer, unassigned) [Compound A-903], for which the AC50 was no less than 10000 nM.

Still in this assay, the particulars now being: Homo sapiens, HeLa, 2 h, 2 hrs compound treatment, Table 1 does not say HeLa wt or TRPML1 KO.
`C[C@@H]1CN(C(=O)C2CCN(c3ccccc3NS(=O)(=O)c3ccc(S(=O)(=O)N(C)C)cc3)CC2)C[C@H](C)O1` [Compound A-754, N4-(2-{4-[(2R,6S)-2,6-dimethylmorpholine-4-carbonyl]piperidin-1-yl}phenyl)-N1,N1-dimethylbenzene-1,4-disulfonamide] registered an AC50 of 2010 to 8000 nM.
`CC(C)CN1CCN(c2ccccc2CS(=O)(=O)c2ccc(S(=O)(=O)N(C)C)cc2)CC1` [Compound A-599, N,N-dimethyl-4-({2-[4-(2-methylpropyl)piperazin-1-yl]phenyl}methanesulfonyl)benzene-1-sulfonamide] displayed an AC50 of 2010 to 8000 nM.
Regarding `COCC1(C)CCN(c2ccccc2NS(=O)(=O)c2ccc3c(c2)CCC(C(F)F)O3)CC1` (centres unmarked) [Compound A-644, 2-(difluoromethyl)-N-{2-[4-(methoxymethyl)-4-methylpiperidin-1-yl]phenyl}-3,4-dihydro-2H-1-benzopyran-6-sulfonamide], the AC50 was in the range of 2010 to 8000 nM.
For the compound `CS(=O)(=O)c1ccc(S(=O)(=O)Nc2ccccc2N2CCC3(CC2)OCCc2ccccc23)cc1` [Compound A-402, N-(2-{3,4-dihydrospiro[2-benzopyran-1,4′-piperidin]-1′-yl}phenyl)-4-methanesulfonylbenzene-1-sulfonamide], the AC50 lay within 2010 to 8000 nM.
Compound `CN(C)S(=O)(=O)c1ccc(S(=O)(=O)Nc2ccccc2N2CCN(C(=O)C(C)(C)C)CC2)cc1` [Compound A-225, N4-{2-[4-(2,2-dimethylpropanoyl)piperazin-1-yl]phenyl}-N1,N1-dimethylbenzene-1,4-disulfonamide] displayed an AC50 of 2010 to 8000 nM.
Compound `CC1Cc2cc(S(=O)(=O)Nc3ccccc3N3CCN(C(=O)C(C)(C)C)CC3)ccc2O1` (centres unmarked) [Compound A-530, N-{2-[4-(2,2-dimethylpropanoyl)piperazin-1-yl]phenyl}-2-methyl-2,3-dihydro-1-benzofuran-5-sulfonamide] yielded an AC50 of 2010 to 8000 nM.
The compound `CS(=O)(=O)c1ccc(S(=O)(=O)Nc2ccccc2N2CCC3(CC2)OCc2cc(F)ccc23)cc1` [Compound A-332, N-(2-{5-fluoro-3H-spiro[2-benzofuran-1,4′-piperidin]-1′-yl}phenyl)-4-methanesulfonylbenzene-1-sulfonamide] registered an AC50 of 2010 to 8000 nM.
Consider `CN(C)S(=O)(=O)c1ccc(S(=O)(=O)Cc2cc(Cl)ccc2N2CCOCC2)cc1` [Compound A-312, 4-{[5-chloro-2-(morpholin-4-yl)phenyl]methanesulfonyl}-N,N-dimethylbenzene-1-sulfonamide], for which the AC50 is no less than 10000 nM.
On the same count and under the same terms, the figure for `O=S(=O)(Nc1ccccc1N1CCN(c2ccc(Cl)cc2F)CC1)C1CCCCC1` [Compound A-8, N-{2-[4-(4-chloro-2-fluorophenyl)piperazin-1-yl]phenyl}cyclohexanesulfonamide] is no less than 10000 nM; for `Cc1ccc(S(=O)(=O)Nc2ccccc2N2CCN(C(=O)C(=O)c3ccccc3)CC2)cc1` [Compound A-350, 4-methyl-N-{2-[4-(2-oxo-2-phenylacetyl)piperazin-1-yl]phenyl}benzene-1-sulfonamide] it is 2010 to 8000 nM.
`CN(C)S(=O)(=O)c1ccc(S(=O)(=O)Nc2ccccc2C2CCN(c3ccc(Cl)cc3F)CC2)cc1` [Compound A-22, N1-(2-(1-(4-chloro-2-fluorophenyl)piperidin-4-yl)phenyl)-N4,N4-dimethylbenzene-1,4-disulfonamide] had an AC50 of 2010 to 8000 nM.
Regarding `Cc1nn(C)c(NS(=O)(=O)c2ccc(S(=O)(=O)N(C)C)cc2)c1C1CCN(c2ccc(Cl)cc2F)CC1` [Compound A-75, N1-(4-(1-(4-chloro-2-fluorophenyl)piperidin-4-yl)-1,3-dimethyl-1H-pyrazol-5-yl)-N4,N4-dimethylbenzene-1,4-disulfonamide], the AC50 was no less than 10000 nM.
Regarding `CN(C)S(=O)(=O)c1ccc(S(=O)(=O)Nc2ccccc2N2CCC(O)(c3ncccc3F)CC2)cc1` [Compound A-355, N4-{2-[4-(3-fluoropyridin-2-yl)-4-hydroxypiperidin-1-yl]phenyl}-N1,N1-dimethylbenzene-1,4-disulfonamide], the AC50 is 2010 to 8000 nM.
Turning to `COc1ccc(S(=O)(=O)Nc2ccccc2N2CC(N(C)c3ccc(F)cc3F)C2)cc1` [Compound A-188, N-(2-{3-[(2,4-difluorophenyl)(methyl)amino]azetidin-1-yl}phenyl)-4-methoxybenzene-1-sulfonamide], the AC50 was no less than 10000 nM.
Consider `CC1(C)CC2(CCN(c3ccccc3NS(=O)(=O)Cc3ccccc3)CC2)CO1` [Compound A-570, N-(2-{3,3-dimethyl-2-oxa-8-azaspiro[4.5]decan-8-yl}phenyl)-1-phenylmethanesulfonamide], for which the concentration at half-maximal activity (AC50) was no more than 2000 nM.
`CN(C)S(=O)(=O)c1ccc(S(=O)(=O)Nc2ccccc2N2CCN(CC(F)F)CC2)cc1` [Compound A-552, N4-{2-[4-(2,2-difluoroethyl)piperazin-1-yl]phenyl}-N1,N1-dimethylbenzene-1,4-disulfonamide] gave an AC50 of no more than 2000 nM.
Compound `O=S1(=O)CCC2(CC1)CN(c1ccc(Cl)cc1NS(=O)(=O)c1ccc3c(c1)CCC3)CCO2` [Compound A-317, N-(5-chloro-2-{9,9-dioxo-1-oxa-9λ^6-thia-4-azaspiro[5.5]undecan-4-yl}phenyl)-2,3-dihydro-1H-indene-5-sulfonamide] had an AC50 of 2010 to 8000 nM.
`C#Cc1ccc(NS(=O)(=O)c2ccc(S(=O)(=O)N(C)C)cc2)c(N2CCCCC2)c1` [Compound A-812, N4-[4-ethynyl-2-(piperidin-1-yl)phenyl]-N1,N1-dimethylbenzene-1,4-disulfonamide]: the AC50 is no more than 2000 nM.
The same measure, in the same setting: the figure for `CN(C)S(=O)(=O)c1ccc(S(=O)(=O)N2CCC(N3CCC(c4ccc(Cl)cc4F)CC3)C2=O)cc1` (centres unmarked) [Compound A-71, 4-((3-(4-(4-chloro-2-fluorophenyl)piperidin-1-yl)-2-oxopyrrolidin-1-yl)sulfonyl)-N,N-dimethylbenzenesulfonamide] is no less than 10000 nM; for `CN(C)S(=O)(=O)c1ccc(S(=O)(=O)Nc2ccccc2N2CCN(C(=O)C3(C)CCCCO3)CC2)cc1` (centres unmarked) [Compound A-448, N1,N1-dimethyl-N4-{2-[4-(2-methyloxane-2-carbonyl)piperazin-1-yl]phenyl}benzene-1,4-disulfonamide] it is no more than 2000 nM.
The compound `CN(C)S(=O)(=O)c1ccc(S(=O)(=O)Nc2ccccc2N2CCC(C)(C(C)(C)O)CC2)cc1` [Compound A-522, N1-(2-(4-(2-hydroxypropan-2-yl)-4-methylpiperidin-1-yl)phenyl)-N4,N4-dimethylbenzene-1,4-disulfonamide] had an AC50 of 2010 to 8000 nM.
In the case of `CN=S(=O)(c1ccc(S(=O)(=O)Nc2cccc(F)c2N2CCC(CN3C[C@@H](C)O[C@@H](C)C3)CC2)cc1)N(C)C` (stereo partly drawn) [Compound A-956, 4-{[2-(4-{[(2R,6S)-2,6-dimethylmorpholin-4-yl]methyl}piperidin-1-yl)-3-fluorophenyl]sulfamoyl}-N,N,N-trimethylbenzene-1-sulfonoimidamide], the AC50 is no more than 2000 nM.
Take `CN(C)S(=O)(=O)c1ccc(S(=O)(=O)Nc2ccccc2N2CCC(C3CCCCO3)CC2)cc1` (centres unmarked) [Compound A-435, N1,N1-dimethyl-N4-{2-[4-(oxan-2-yl)piperidin-1-yl]phenyl}benzene-1,4-disulfonamide]: the AC50 was no more than 2000 nM.
For `C[C@H]1COC[C@H](C)N1C[C@H]1CCN(c2c(F)cccc2NS(=O)(=O)c2ccc(S(=O)(=O)N(C)C)cc2)C1` (relative stereo) [Compound A-896, N4-{2-[(3R)-3-{[3,5-dimethylmorpholin-4-yl]methyl}pyrrolidin-1-yl]-3-fluorophenyl}-N1,N1-dimethylbenzene-1,4-disulfonamide], the AC50 was no more than 2000 nM.
On the same count and under the same terms, to `COCC1(C)CC2CCC(C1)N2c1ccccc1NS(=O)(=O)c1ccc(S(=O)(=O)N(C)C)cc1` (centres unmarked) [Compound A-734, N4-{2-[3-(methoxymethyl)-3-methyl-8-azabicyclo[3.2.1]octan-8-yl]phenyl}-N1,N1-dimethylbenzene-1,4-disulfonamide] belongs no more than 2000 nM; to `COCC1CCN(c2ccccc2NS(=O)(=O)c2ccc(S(=O)(=O)N(C)C)cc2)CC1` [Compound A-434, N4-{2-[4-(methoxymethyl)piperidin-1-yl]phenyl}-N1,N1-dimethylbenzene-1,4-disulfonamide], no more than 2000 nM; to `CC(=O)N1CCC(S(=O)(=O)Nc2ccccc2N2CCN(c3ccc(Cl)cc3F)CC2)CC1` [Compound A-17, 1-acetyl-N-{2-[4-(4-chloro-2-fluorophenyl)piperazin-1-yl]phenyl}piperidine-4-sulfonamide], 2010 to 8000 nM.
For the compound `COC(C)C1(C)CCN(c2ccccc2NS(=O)(=O)c2ccc(S(=O)(=O)N(C)C)cc2)CC1` (centres unmarked) [Compound A-741, N4-{2-[4-(1-methoxyethyl)-4-methylpiperidin-1-yl]phenyl}-N1,N1-dimethylbenzene-1,4-disulfonamide], the AC50 was no more than 2000 nM.
`CN(C)S(=O)(=O)c1ccc(S(=O)(=O)Nc2ccccc2N2CCN(CC3CCCO3)CC2)cc1` (centres unmarked) [Compound A-495, N1,N1-dimethyl-N4-(2-{4-[(oxolan-2-yl)methyl]piperazin-1-yl}phenyl)benzene-1,4-disulfonamide] came in with an AC50 of 8010 to 9990 nM.
On to `Cc1cc(Cl)c(N2CCOCC2)c(NS(=O)(=O)c2ccc(S(=O)(=O)N(C)C)cc2)c1` [Compound A-888, N4-[3-chloro-5-methyl-2-(morpholin-4-yl)phenyl]-N1,N1-dimethylbenzene-1,4-disulfonamide], for which the AC50 is 2010 to 8000 nM.
Consider `CCC(C)(C)CC(=O)N1CCN(c2ccccc2NS(=O)(=O)c2ccc(S(=O)(=O)N(C)C)cc2)CC1` [Compound A-426, N4-{2-[4-(3,3-dimethylpentanoyl)piperazin-1-yl]phenyl}-N1,N1-dimethylbenzene-1,4-disulfonamide], for which the AC50 was no more than 2000 nM.
